pIC50: −log10 of the molar value.
Legend:
[1] = molecular target: T1, Falcipain 2 (Plasmodium falciparum, UniProt Q9N6S8); experiment: Inhibition of Plasmodium falciparum recombinant falcipain 2 expressed in Escherichia coli using Z-Leu-Arg-AMC as substrate incubated for 30 min prior to substrate addition measured for 30 min by fluorometric analysis
T1 sequence (Q9N6S8 whole entry): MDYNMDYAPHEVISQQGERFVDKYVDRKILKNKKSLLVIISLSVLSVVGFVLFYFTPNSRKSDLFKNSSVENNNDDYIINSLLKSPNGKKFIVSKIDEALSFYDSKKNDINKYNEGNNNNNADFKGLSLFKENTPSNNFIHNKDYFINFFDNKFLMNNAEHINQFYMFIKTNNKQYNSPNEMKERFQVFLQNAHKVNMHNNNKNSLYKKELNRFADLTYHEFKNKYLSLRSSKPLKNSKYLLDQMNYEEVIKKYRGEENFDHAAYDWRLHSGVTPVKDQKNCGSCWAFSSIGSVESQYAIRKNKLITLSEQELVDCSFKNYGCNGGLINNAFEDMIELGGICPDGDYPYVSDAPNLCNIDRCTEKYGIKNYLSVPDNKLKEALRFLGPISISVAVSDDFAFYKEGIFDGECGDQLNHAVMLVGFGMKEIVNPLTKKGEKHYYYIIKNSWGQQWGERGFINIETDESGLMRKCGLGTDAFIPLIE

[2] = molecular target: T2, Falcipain 2 (Plasmodium falciparum) (UniProt Q9N6S8); experiment: Inhibition of Plasmodium falciparum recombinant falcipain 2 expressed in Escherichia coli using Z-Leu-Arg-AMC as substrate at 10 uM incubated for 30 min prior to substrate addition measured for 30 min by fluorometric analysis
T2 sequence (whole entry): T1 sequence (Q9N6S8 whole entry)

Compound | pIC50 [1] | inhibition [2] [%]
Cc1cc(N/N=C/c2ccc(O[C@H]3O[C@@H]4O[C@@]5(C)CC[C@H]6[C@H](C)CC[C@@H]([C@H]3C)[C@@]46OO5)cc2)c2c(Cl)ccc(C)c2n1 | 6.41 | 79.4
Cc1cc(N/N=C/c2ccc(O[C@H]3O[C@@H]4O[C@@]5(C)CC[C@H]6[C@H](C)CC[C@@H]([C@H]3C)[C@@]46OO5)cc2)c2cc(Br)ccc2n1 | 6.59 | 89.8
Cc1cc(N/N=C/c2ccc(O[C@H]3O[C@@H]4O[C@@]5(C)CC[C@H]6[C@H](C)CC[C@@H]([C@H]3C)[C@@]46OO5)cc2)c2ccc(Cl)cc2n1 | 6.77 | 88.4
CCc1cccc2c(N/N=C/c3ccc(O[C@H]4O[C@@H]5O[C@@]6(C)CC[C@H]7[C@H](C)CC[C@@H]([C@H]4C)[C@@]57OO6)cc3)cc(C)nc12 | 6.28 | 85.1
Cc1cc(N/N=C/c2ccc(O[C@H]3O[C@@H]4O[C@@]5(C)CC[C@H]6[C@H](C)CC[C@@H]([C@H]3C)[C@@]46OO5)cc2)c2cccc(C)c2n1 | 5.64 | 84.3
Cc1ccc2nc(C)cc(N/N=C/c3ccc(O[C@H]4O[C@@H]5O[C@@]6(C)CC[C@H]7[C@H](C)CC[C@@H]([C@H]4C)[C@@]57OO6)cc3)c2c1 | 6.11 | 87.2
Cc1cc(N/N=C/c2ccc(O[C@H]3O[C@@H]4O[C@@]5(C)CC[C@H]6[C@H](C)CC[C@@H]([C@H]3C)[C@@]46OO5)cc2)c2cccc(Br)c2n1 | 6.08 | 94.1
CC(C)C[C@H](NC(=O)[C@H]1O[C@@H]1C(=O)O)C(=O)NCCCCN=C(N)N [E-64] | 7.70 | 92
Cc1cc(N/N=C/c2ccc(O[C@H]3O[C@@H]4O[C@@]5(C)CC[C@H]6[C@H](C)CC[C@@H]([C@H]3C)[C@@]46OO5)cc2)c2cc(F)ccc2n1 | 6.17 | 88.6
Cc1cc(N/N=C/c2ccc(O[C@H]3O[C@@H]4O[C@@]5(C)CC[C@H]6[C@H](C)CC[C@@H]([C@H]3C)[C@@]46OO5)cc2)c2ccc(C)c(C)c2n1 | 6.08 | 79.4
Cc1cc(N/N=C/c2ccc(O[C@H]3O[C@@H]4O[C@@]5(C)CC[C@H]6[C@H](C)CC[C@@H]([C@H]3C)[C@@]46OO5)cc2)c2cc(Cl)ccc2n1 | 6.82 | 88.2
Cc1cc(N/N=C/c2ccc(O[C@H]3O[C@@H]4O[C@@]5(C)CC[C@H]6[C@H](C)CC[C@@H]([C@H]3C)[C@@]46OO5)cc2)c2ccc(Cl)c(C)c2n1 | 6.68 | 82.6
Cc1cc(N/N=C/c2ccc(O[C@H]3O[C@@H]4O[C@@]5(C)CC[C@H]6[C@H](C)CC[C@@H]([C@H]3C)[C@@]46OO5)cc2)c2ccccc2n1 | 6.05 | 94.1
COc1ccc2nc(C)cc(N/N=C/c3ccc(O[C@H]4O[C@@H]5O[C@@]6(C)CC[C@H]7[C@H](C)CC[C@@H]([C@H]4C)[C@@]57OO6)cc3)c2c1 | 6.54 | 93.7
Cc1cc(N/N=C/c2ccc(O[C@H]3O[C@@H]4O[C@@]5(C)CC[C@H]6[C@H](C)CC[C@@H]([C@H]3C)[C@@]46OO5)cc2)c2cccc(F)c2n1 | 6.55 | 84.7

From ChEMBL document CHEMBL3044922, “N 1-{4-[(10S)-Dihydroartemisinin-10-oxyl]}phenylmethylene-N 2-(2-methylquinoline-4-yl)hydrazine derivatives as antiplasmodial falcipain-2 inhibitors” (Med Chem Res, 2012)
